Experimental findings from patent US20220000110A1, “COMPOSITIONS COMPRISING PYRIDINE CARBOXYLATE HERBICIDES AND CELLULOSE BIOSYNTHESIS INHIBITOR HERBICIDES” (priority 2018, published 2022) are described below.

SMILES strings stand for the structures.

Test [1] deals with Rumex obtusifolius (broad-leaf dock). Put plainly: Greenhouse postemergence herbicidal effect, visual injury after 20-22 d. The test is classed as in vivo. The settings on record: Table 1, RUMOB. In outline: (§1)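 Visual injury on a 0–100% scale (0 none, 100 complete kill) relative to solvent-blank-sprayed controls was the read-out. Treatments were two-way herbicide combinations containing safener, sprayed postemergence at 187 L/ha with 1.25% v/v crop oil adjuvant onto plants at the second to third true leaf stage.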

The test system of test [2] is Cyperus esculentus (nutsedge). The test is described as above. The test is classed as in vivo. The settings on record: Table 1, CYPES. The procedure, abridged: as §1

Take `N#CCOC(=O)c1nc(-c2ccc3cc[nH]c3c2F)c(F)c(N)c1Cl` [Compound A, cyanomethyl 4-amino-3-chloro-5-fluoro-6-(7-fluoro-1H-indol-6-yl)pyridine-2-carboxylate]: the “Obs % visual injury” value in test [1] (Compound A 7.5 g/ha) turned out to be 20%; in test [1] (Compound A 10 g/ha), 13%; in test [2] (Compound A 7.5 g/ha), 30%; in test [2] (Compound A 10 g/ha) it was 8%.
